Assay results as given in US20220402973A1, “POLYPEPTIDE FRAGMENT C (MP-C) AND USE THEREOF” (SHANGHAI LONGXIN BIOMEDICAL TECHNOLOGY CO., LTD., priority 2021, published 2022).

B1: THTVGSYFSVQNGYVGAFSQALGNSEYAMNSPLGSLDGRTTMYNLLGVKYLFAREDQLKKQ (peptide, listed as Lactobacillus plantarum)
chain: THTVGSYFSVQNGYVGAFSQALGNSEYAMNSPLGSLDGRTTMYNLLGVKYLFAREDQLKKQ
notes: positive control

How the values were obtained:
Format in all cases: in vivo, mice (male C57BL6)
[1] = tested on: DSS-induced IBD in mice; test: DAI scoring in DSS-induced acute IBD mouse model; conditions: DSS 2.5 wt % induced IBD mice, 50 μg/kg intragastric daily; for DAI (disease activity index) score: 7 days pre-administration then with DSS, end of experiment, mean±SD, model group 3.7±0.6, blank 0.0±0.0; for body weight of mice (effect of intervention): versus model group
Experimental: (§1) The administration of a DSS solution with a specified concentration to mice can induce an acute IBD model characterized by diarrhea, hematochezia, ulcer, and granulocyte infiltration. Mice were randomly grouped according to body weights of the mice. 40 healthy male C57BL6 mice were divided into four groups each with 10 mice:
blank control group: the mice were each intragastrically administered with water every day at a volume of 0.4 mL/20 g;
model group: the mice were each intragastrically administered with a DSS aqueous solution of a mass fraction of 2.5 wt % consecutively for 7 days, where the DSS aqueous solution was freshly prepared and changed every day;
(§2) MIMP positive control group: the mice were each given a pre-administration process for one week, that is, the mice were each intragastrically administered with an MIMP solution of a mass fraction of 50 μg/kg for the first 7 days, and then from day 8, the mice were each intragastrically administered with a DSS aqueous solution of a mass fraction of 2.5 wt % (at a volume of 0.4 mL/20 g) and an MIMP solution of a mass fraction of 50 μg/kg (at a volume of 0.4 mL/20 g) every day; and
as §2, with “MP-C experimental” for “MIMP positive control”, “MP-C” for “MIMP”, “and” for “and then”, “day.” for “day; and”
The body weight changes of mice in each group were recorded every day to determine whether the acute IBD mouse model was successfully established.
(§3) After DSS induction, the body weight changes, activities, and feces viscosity of the mice in each group were recorded every day. […] A mouse colon between an anus end to an ileocecal end was integrally collected, and a length of the colon was measured; and the colon was dissected along a longitudinal axis, feces therein was rinsed off, and then the colon was stored in 4% […] or frozen at −80° C.
(§4) Experimental data in the above experimental method were expressed as (x±SD), the GraphPad Prism (ver. 8.0, GraphPad Software Inc., San Diego, Calif., USA) was used to plot a chart, the SPSS Program (ver. 25.0, SPSS Inc., Chicago, Ill., USA) was used for statistical test, and one-way ANOVA or independent two-sample t-test were used for significance test when the normality and homogeneity of variances were met. It was assumed that α=0.05, and P<0.05 indicates a statistically significant difference.

[2] = tested on: DSS-induced IBD in mice; test: Colonic histopathological evaluation (HE staining) in DSS-induced IBD mice; conditions: DSS 2.5 wt % induced IBD mice, 50 μg/kg intragastric daily, mean±SD, model group 5.6±0.7, blank 0.0±0.0
Source text: as §1
as §2, with “day; and […]” for “day; and”
as §4, with “It was assumed that α=0.05, and P<0.05 indicates a statistically significant difference.” left out

[3] = tested on: DSS-induced IBD in mice; test: Colon length in DSS-induced acute IBD mouse model; conditions: DSS 2.5 wt % induced IBD mice; 50 μg/kg intragastric daily; mean±SD; model group 6.4±0.5, blank 9.5±0.5; in cm (unit assumed)
Experimental: as §1, with “mice: […]” for “mice:”
as §3
as §4, with “It was assumed that α=0.05, and P<0.05 indicates a statistically significant difference.” left out

[4] = tested on: IFN-γ; test: ELISA of colonic IFN-γ expression in DSS-induced IBD mice; conditions: DSS 2.5 wt % induced IBD mice; 50 μg/kg intragastric daily; colon homogenate ELISA; mean±SD; model group 1223.1±41.5, blank 889.2±74.6
Experimental: as §1, with “mice: […]” for “mice:”
The colon sample frozen at −80° C. in step 1.2 was placed in an EP tube, PBS and magnetic beads were added, and then the colon sample was subjected to ultrasonic homogenization in a tissue grinder; and a resulting homogenate was centrifuged, and a resulting supernatant was collected. […] Appropriate primary and secondary antibodies were used according to the instructions, an o-phenylenediamine (OPD) chromogenic solution was used for color development, and after the reaction was terminated, reading was conducted on a microplate reader at a wavelength of 490 nm, with three replicate wells for each sample.
as §4, with “It was assumed that α=0.05, and P<0.05 indicates a statistically significant difference.” left out

Row | Molecule | DAI (disease activity index) score [1] | body weight of mice (effect of intervention) [1] | colonic histopathologic score [2] | colon length [3] | expression level of IFN-γ in colon [4]
1 | THTVGSYFVVQNGYVGAFSYALGNSEYAMSSPLGSLDGRTTRYNLL (THTVGSYFXVQNGYVGAFSXALGNSEYAMXSPLGSLDGRTTXYNLL; Sequence is synthesized; (9)..(9) Xaa can be Tyr, Val, Gly, Ser, or Gln; (20)..(20) Xaa can be Ser, Gln, Glu, or Tyr; (30)..(30) Xaa can be Asn, Thr, Ser, Pro, or Leu; (42)..(42) Xaa can be Gly, Arg, Met, or absent) [MP-C] | 2.0±0.3 | prevented the significant decrease in body weight | 1.2±0.2 | 9.2±0.2 | 1068.4±61.2
2 | B1 | 2.7±0.7 | prevented the significant decrease in body weight | 1.4±0.7 | 9.5±0.3 | 1011.4±79.5
